Assay results published in ChEMBL document CHEMBL4382254, “Design, synthesis, structure-activity relationships and mechanism of action of new quinoline derivatives as potential antitumor agents” (Eur J Med Chem, 2019).
Activity calls are given as the source filed them. No cut-off for these calls is given here.

Key:
HCT-116 [1] = test: Inhibition of colony formation in P53-deficient human HCT116 cells after 24 hrs by crystal violet staining based assay; type: functional, cell-based
RKO [2] = test: Induction of morphological changes in human RKO cells assessed as cell shrinkage at 5 to 10 uM after 24 hrs by phase contrast microscopic analysis; type: functional, cell-based
HCT-116 [3] = test: Induction of apoptosis in Bax-deficient human HCT116 cells assessed as necrotic cells at 5 uM after 24 hrs by Annexin V-FITC/propidium iodide staining based flow cytometry (reference value: 6.74%); type: functional
DLD-1 [4] = test: Cytotoxicity against human DLD1 cells after 48 hrs by MTT assay; type: functional, cell-based; conditions: DLD-1, 48 h
HCT-116 [5] = test: Cell cycle arrest in human HCT116 cells assessed as accumulation at G0/G1 phase at 5 uM after 24 hrs by propidium iodide staining based flow cytometry (reference value: 77.78%); type: functional
RKO [6] = test: Inhibition of colony formation in human RKO cells after 24 hrs by crystal violet staining based assay; type: functional, cell-based
HCT-116 [7] = test: Induction of apoptosis in human HCT116 cells assessed as decrease in pro-caspase9 level at 2.5 to 10 uM after 24 hrs by immunoblot analysis; type: functional, cell-based
[8] = molecular target: Cellular tumor antigen p53 (Homo sapiens) (UniProt P04637); test: Induction of P53 phosphorylation at Ser392 residue in human HCT116 cells after 15 to 90 mins by immunoblot analysis; type: cell-based
Sequence of Cellular tumor antigen p53 (Homo sapiens) (P04637 whole entry, looked up): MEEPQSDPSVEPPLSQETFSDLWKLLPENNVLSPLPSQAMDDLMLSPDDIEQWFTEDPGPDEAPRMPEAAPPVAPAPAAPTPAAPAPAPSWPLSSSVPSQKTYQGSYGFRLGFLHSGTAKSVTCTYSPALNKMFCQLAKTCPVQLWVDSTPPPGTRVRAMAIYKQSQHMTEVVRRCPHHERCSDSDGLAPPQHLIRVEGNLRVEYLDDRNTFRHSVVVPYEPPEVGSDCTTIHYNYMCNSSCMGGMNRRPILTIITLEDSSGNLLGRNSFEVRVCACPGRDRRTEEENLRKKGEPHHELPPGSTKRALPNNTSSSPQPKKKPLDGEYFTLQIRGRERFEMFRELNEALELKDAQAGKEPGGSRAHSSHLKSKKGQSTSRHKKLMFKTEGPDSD

HCT-116 [9] = test: Induction of apoptosis in human HCT116 cells assessed as increase in cleaved PARP level at 2.5 to 10 uM after 24 hrs by immunoblot analysis; type: functional, cell-based
HCT-116 [10] = test: Induction of apoptosis in human HCT116 cells assessed as early apoptotic cells at 5 uM after 24 hrs by Annexin V-FITC/propidium iodide staining based flow cytometry (reference value: 3.32 to 5.5%); type: functional
HCT-116 [11] = test: Cytotoxicity against Bax-deficient human HCT116 cells assessed as reduction in cell viability measured after 24 hrs by CCK8 assay; type: functional, cell-based; conditions: HCT-116, 24 h
HCT-116 [12] = test: Cell cycle arrest in human HCT116 cells assessed as accumulation at G2/M phase at 5 uM after 24 hrs by propidium iodide staining based flow cytometry (reference value: 16.3%); type: functional
HCT-116 [13] = test: Cytotoxicity against human HCT116 cells assessed as reduction in cell viability measured after 24 hrs by CCK8 assay; type: functional, cell-based; conditions: HCT-116, 24 h
HCT-116 [14] = test: Cell cycle arrest in human HCT116 cells assessed as accumulation at S phase at 5 uM after 24 hrs by propidium iodide staining based flow cytometry (reference value: 5.55%); type: functional
[15] = molecular target: Cellular tumor antigen p53 (Homo sapiens) (UniProt P04637); test: Activation of P53 in human HCT116 cells assessed as increase in PUMA expression at 2.5 to 20 uM after 24 hrs by immunoblot analysis; type: cell-based
HCT-116 [16] = test: Induction of apoptosis in human HCT116 cells assessed as decrease in pro-caspase3 level at 2.5 to 10 uM after 24 hrs by immunoblot analysis; type: functional, cell-based
NCI-H1650 = test: Cytotoxicity against human NCI-H1650 cells after 48 hrs by MTT assay; type: functional, cell-based; conditions: NCI-H1650, 48 h
HCT-116 [17] = test: Induction of apoptosis in P53-deficient human HCT116 cells assessed as increase in p21 expression at 2.5 to 20 uM after 24 hrs by immunoblot analysis; type: functional, cell-based
[18] = molecular target: Cellular tumor antigen p53 (Homo sapiens) (UniProt P04637); test: Activation of P53 in human HCT116 cells assessed as decrease in PARP expression at 2.5 to 20 uM after 24 hrs by immunoblot analysis; type: cell-based
HCT-116 [19] = test: Induction of intracellular reactive oxygen species generation in human HCT116 cells at 5 to 10 uM after 24 hrs by DCFH-DA staining based flow cytometry; type: functional, cell-based
HepG2 = test: Cytotoxicity against human HepG2 cells after 48 hrs by MTT assay; type: functional, cell-based; conditions: HepG2, 48 h
HCT-116 [20] = test: Cytotoxicity against human HCT116 cells assessed as reduction in cell viability at 5 uM incubated for 24 hrs followed by compound washout by CCK8 assay; type: functional, cell-based; conditions: TDE = time-dependent effect
HCT-116 [21] = test: Induction of apoptosis in P53-deficient human HCT116 cells assessed as viable cells at 5 uM after 24 hrs by Annexin V-FITC/propidium iodide staining based flow cytometry (reference value: 75.5%); type: functional; conditions: HCT-116, 24 h, read-out: Activity
DLD-1 [22] = test: Induction of morphological changes in human DLD1 cells assessed as cell shrinkage at 5 to 10 uM after 24 hrs by phase contrast microscopic analysis; type: functional, cell-based
HCT-116 [23] = test: Induction of apoptosis in Bax-deficient human HCT116 cells assessed as early apoptotic cells at 5 uM after 24 hrs by Annexin V-FITC/propidium iodide staining based flow cytometry (reference value: 8.01%); type: functional
[24] = molecular target: Cellular tumor antigen p53 (Homo sapiens) (UniProt P04637); test: Induction of P53 phosphorylation at Ser15 residue in human HCT116 cells after 15 to 90 mins by immunoblot analysis; type: cell-based
HCT-116 [25] = test: Induction of apoptosis in human HCT116 cells assessed as change in P53 expression at 2.5 to 20 uM after 24 hrs by immunoblot analysis; type: functional, cell-based
HCT-116 [26] = test: Anticancer activity against human HCT116 cells xenografted in […] mouse assessed as reduction in tumor weight at 80 mg/kg administered once every 3 days for 21 days; type: functional, organism-based
HCT-116 [27] = test: Induction of apoptosis in Bax-deficient human HCT116 cells assessed as viable cells at 5 uM after 24 hrs by Annexin V-FITC/propidium iodide staining based flow cytometry (reference value: 70.58%); type: functional; conditions: HCT-116, 24 h, read-out: Activity
[28] = molecular target: Cellular tumor antigen p53 (Homo sapiens) (UniProt P04637); test: Activation of P53 in human HCT116 cells assessed as increase in p21 expression at 2.5 to 20 uM after 24 hrs by immunoblot analysis; type: cell-based
HCT-116 [29] = test: Induction of apoptosis in human HCT116 cells assessed as early apoptotic cells at 2.5 to 5 uM after 24 hrs in presence of pan-caspase inhibitor z-VAD-FMK by Annexin V-FITC/propidium iodide staining based flow cytometry (reference value: 2.5%); type: functional
HCT-116 [30] = test: Induction of morphological changes in human HCT116 cells assessed as reduction in cell number at 5 to 10 uM after 24 hrs by phase contrast microscopic analysis; type: functional, cell-based
HCT-116 [31] = test: Induction of apoptosis in P53-deficient human HCT116 cells assessed as increase in PUMA expression at 2.5 to 20 uM after 24 hrs by immunoblot analysis; type: functional, cell-based
[32] = molecular target: Cellular tumor antigen p53 (Homo sapiens) (UniProt P04637); test: Induction of P53 translocation to nucleus in human HCT116 cells measured after 15 to 90 mins by immunoblot analysis; type: cell-based
HCT-116 [33] = test: Induction of apoptosis in human HCT116 cells assessed as viable cells at 2.5 to 5 uM after 24 hrs in presence of pan-caspase inhibitor z-VAD-FMK by Annexin V-FITC/propidium iodide staining based flow cytometry (reference value: 88.08%); type: functional
HCT-116 [34] = test: Induction of apoptosis in human HCT116 cells assessed as late apoptotic cells at 2.5 to 5 uM after 24 hrs in presence of pan-caspase inhibitor z-VAD-FMK by Annexin V-FITC/propidium iodide staining based flow cytometry (reference value: 7.29%); type: functional
HCT-116 [35] = test: Induction of apoptosis in P53-deficient human HCT116 cells assessed as late apoptotic cells at 5 uM after 24 hrs by Annexin V-FITC/propidium iodide staining based flow cytometry (reference value: 34.09%); type: functional

- Activity [8]: Active
- Activity [15]: Active
- Activity [18]: Active
- Activity [24]: Active
- Activity [28]: Active
- Activity [32]: Active
Structure (SMILES): CN(C)CCNc1ccnc2cc(OCc3ccc(F)cc3)ccc12
- inhibition (HCT-116 [1]): inactive
- Activity (RKO [2]): Active
- Activity (HCT-116 [3]): 1.24%
- IC50 (DLD-1 [4]): 810 nM
- Activity (HCT-116 [5]): 82.21%
- inhibition (RKO [6]): Dose-dependent effect
- Activity (HCT-116 [7]): Active
- Activity (HCT-116 [9]): Active
- Activity (HCT-116 [10]): 6.13 - 19.42%
- IC50 (HCT-116 [11]): 31100 nM
- Activity (HCT-116 [12]): 12.94%
- IC50 (HCT-116 [13]): 72800 nM
- Activity (HCT-116 [14]): 4.38%
- Activity (HCT-116 [16]): Active
- IC50 (NCI-H1650): 780 nM
- Activity (HCT-116 [17]): inactive
- Activity (HCT-116 [19]): inactive
- IC50 (HepG2): 790 nM
- Activity (HCT-116 [20]): Tde
- viability at 5 µM (HCT-116 [21]): 76.3%
- Activity (DLD-1 [22]): Active
- Activity (HCT-116 [23]): 24.16%
- Activity (HCT-116 [25]): inactive
- Activity (HCT-116 [26]): Active
- viability at 5 µM (HCT-116 [27]): 77.3%
- Activity (HCT-116 [29]): 3.15%
- Activity (HCT-116 [30]): Active
- Activity (HCT-116 [31]): inactive
- Activity (HCT-116 [33]): 84.15%
- Activity (HCT-116 [34]): 10.05%
- Activity (HCT-116 [35]): 14.05%
